Experiments:
mice = assay: Acute toxicity; format: in vivo; conditions: intravenous injection from tail vein, conscious mice, monitored for 3 days
Experimental: Reduction of toxicity by the introduction of sulfonic acid group and reduction thereof by conversion into sodium salt were studied.
Each test compound was dissolved in distilled water to give a compound solution. This solution was intravenously injected to the conscious mice from the tail vein. The mice were monitored for 3 days after the administration, and acute toxicity [LD50 (mg/kg body weight)] was estimated.

[1] = Partition coefficient (log Po/w) of n-butanol/water; format: physicochemical; conditions: n-butanol/water two-phase system
Description: The fluorescent contrast agent to be used in a living body should be particularly water soluble. […] For easy synthesis, the number of the sulfonic acid groups is not more than 10, preferably not more than 8. The improvement in the water solubility can be determined by measuring partition coefficient of each compound, which for example, may be measured in a two-phase system of butanol/water. More specifically, introduction of 3 or more sulfonic acid groups results in a partition coefficient log Po/w of n-butanol/water of not more than −1.00.

SMILES: CC1(C)C(=CC=CC2=[N+](CCCS(=O)(=O)[O-])c3ccccc3C2(C)C)N(CCCS(=O)(=O)[O-])c2ccccc21.[Na+] [NK-1967]
- LD50 (mice): 20 mg/kg body weight
- log Po/w (butanol/water) [1]: 0.34

From patent publication US7488468B1, “Near infrared fluorescent contrast agent and fluorescence imaging” (Schering AG, priority 1998, dated 2009)
